Experimental data as given in patent publication US20180289678A1, “PHARMACEUTICAL COMPOSITION, PHARMACEUTICAL DOSAGE FORM, PROCESS FOR THEIR PREPARATION, METHODS FOR TREATING AND USES THEREOF” (Boehringer Ingelheim International GmbH, priority 2009, published 2018).
Read-outs that look alike come from different tables or passages of the source.

Key:
[1] = Study .3: single dose, cross-over, food effect study in healthy volunteers, pharmacokinetic parameters; format: in vivo, human; settings: 50 mg single dose
Procedure: 5. Pharmacokinetic Parameters
The pharmacokinetic parameters of pharmaceutical compositions and pharmaceutical dosage forms are assessed in healthy volunteer and patient populations. In the studies shown below, the participants fasted on the day of sampling, unless as otherwise stated (see for example study .3). The active substance in the studies below is the compound (I.9), preferably in the crystalline form (I.9X), and the dose of active ingredient is indicated in mg.
For the quantification of plasma concentrations of the active ingredient, 2.7 mL of blood was collected and transferred into an EDTA (ethylendiaminetetraacetic acid)-anticoagulant blood drawing tube. The EDTA-anticoagulated blood samples were centrifuged immediately after collection. Centrifugation lasted for about 10 minutes (at about 2,000×gf to 4,000×gf) at 4-8° C. or within 30 minutes while stored on ice. Concentrations of active substance in EDTA human plasma samples were quantitated using a HPLC/MS/MS method. The assay method comprised a solid phase supported liquid-liquid extraction of human plasma coupled with HPLC/MS/MS determination of the extracted samples. The HPLC/MS/MS assay was validated for the range of 1.11 to 1110 nM in human plasma.
Study .3: Single dose, cross-over, food effect study in a healthy volunteer population of N=14. Healthy volunteers were administered tablets as described in Example 10 (section Examples of formulations).
AUC0-inf:area under the concentration-time curve of the analyte in plasma over the time interval from 0 extrapolated to infinity.
Cmax: maximum concentration of the analyte in plasma.
Tmax: time from dosing to maximum concentration.

[2] = system: Zucker Diabetic Fatty (ZDF) rats; experiment: Oral glucose tolerance test in ZDF rats; format: in vivo, rat; settings: oral glucose load
Procedure: According to a first example an oral glucose tolerance test is performed in overnight fasted 9-weeks old male Zucker Diabetic Fatty (ZDF) rats (ZDF/Crl-Lepr^fa). A pre-dose blood sample is obtained by tail bleed. Blood glucose is measured with a glucometer, and the animals are randomized for blood glucose (n=5/group). Subsequently, the groups receive a single oral administration of either vehicle alone (0.5% aqueous hydroxyethylcellulose containing 3 mM HCl and 0.015% Polysorbat 80) or vehicle containing the SGLT2 inhibitor. The animals receive an oral glucose load (2 g/kg) 30 min after compound administration. Blood glucose is measured in tail blood 30 min, 60 min, 90 min, 120 min, and 180 min after the glucose challenge. Glucose excursion is quantified by calculating the reactive glucose AUC. The data are presented as mean ±SEM. The two-sided unpaired Student t-test is used for statistical comparison of the control group and the active groups.
Compound (I.9) (1-chloro-4-(β-D-glucopyranos-1-yl)-2-[4-((S)-tetrahydrofuran-3-yloxy)-benzyl]-benzene) was orally administered to ZDF rats at doses of 0.3 mg/kg, 3 mg/kg or 30 mg/kg body weight. Compound (I.9) reduced glucose excursion by 15% at 0.3 mg/kg (not significant), by 62% at 3 mg/kg (p<0.001) and by 89% at 30 mg/kg (p<0.001).

AUC0-inf Max ([1]; Study .3/fasted): 14.1 µM·h
AUC0-inf Min ([1]; Study .3/fasted): 6.45 µM·h
AUC0-inf,norm Max ([1]; Study .3/fasted): 282 nmol·h/L/mg
AUC0-inf,norm Median ([1]; Study .3/fasted): 159 nmol·h/L/mg
AUC0-inf,norm Min ([1]; Study .3/fasted): 129 nmol·h/L/mg
AUC0-inf,norm gMean ([1]; Study .3/fasted): 166 nmol·h/L/mg
Cmax,norm Max ([1]; Study .3/fasted): 40 nmol/L/mg
Cmax,norm Median ([1]; Study .3/fasted): 20 nmol/L/mg
Cmax,norm Min ([1]; Study .3/fasted): 18 nmol/L/mg
Cmax,norm gMean ([1]; Study .3/fasted): 23 nmol/L/mg
tmax Max ([1]; Study .3/fasted): 4.07 h
tmax Min ([1]; Study .3/fasted): 0.750 h
Cmax ([1]; Study .3/fasted, read-out: Cmax Max): 2020 nM
Cmax ([1]; Study .3/fasted, read-out: Cmax Min): 878 nM
AUC0-inf Max ([1]; Study .3/fed): 10.8 µM·h
AUC0-inf Min ([1]; Study .3/fed): 5.06 µM·h
AUC0-inf,norm Max ([1]; Study .3/fed): 216 nmol·h/L/mg
AUC0-inf,norm Median ([1]; Study .3/fed): 150 nmol·h/L/mg
AUC0-inf,norm Min ([1]; Study .3/fed): 101 nmol·h/L/mg
AUC0-inf,norm gMean ([1]; Study .3/fed): 149 nmol·h/L/mg
Cmax,norm Max ([1]; Study .3/fed): 21 nmol/L/mg
Cmax,norm Median ([1]; Study .3/fed): 17 nmol/L/mg
Cmax,norm Min ([1]; Study .3/fed): 9 nmol/L/mg
Cmax,norm gMean ([1]; Study .3/fed): 16 nmol/L/mg
tmax Max ([1]; Study .3/fed): 4.00 h
tmax Min ([1]; Study .3/fed): 1.00 h
Cmax ([1]; Study .3/fed, read-out: Cmax Max): 1070 nM
Cmax ([1]; Study .3/fed, read-out: Cmax Min): 436 nM
AUC(0-inf) ([1]; human, plasma, oral, 50 mg, Study .3/fasted, read-out: AUC0-inf Mean): 8.51 µM·h
AUC(0-inf) ([1]; human, plasma, oral, 50 mg, Study .3/fasted, read-out: AUC0-inf Median): 7.93 µM·h
AUC(0-inf) ([1]; human, plasma, oral, 50 mg, Study .3/fasted, read-out: AUC0-inf gMean): 8.31 µM·h
Cmax ([1]; human, plasma, oral, 50 mg, Study .3/fasted, read-out: Cmax Mean): 1180 nM
Cmax ([1]; human, plasma, oral, 50 mg, Study .3/fasted, read-out: Cmax Median): 1010 nM
Cmax ([1]; human, plasma, oral, 50 mg, Study .3/fasted, read-out: Cmax gMean): 1140 nM
Tmax ([1]; human, plasma, oral, 50 mg, Study .3/fasted, read-out: tmax Mean): 1.53 h
Tmax ([1]; human, plasma, oral, 50 mg, Study .3/fasted, read-out: tmax Median): 1.02 h
Tmax ([1]; human, plasma, oral, 50 mg, Study .3/fasted, read-out: tmax gMean): 1.29 h
AUC(0-inf) ([1]; human, plasma, oral, 50 mg, Study .3/fed, read-out: AUC0-inf Mean): 7.59 µM·h
AUC(0-inf) ([1]; human, plasma, oral, 50 mg, Study .3/fed, read-out: AUC0-inf Median): 7.49 µM·h
AUC(0-inf) ([1]; human, plasma, oral, 50 mg, Study .3/fed, read-out: AUC0-inf gMean): 7.46 µM·h
Cmax ([1]; human, plasma, oral, 50 mg, Study .3/fed, read-out: Cmax Mean): 824 nM
Cmax ([1]; human, plasma, oral, 50 mg, Study .3/fed, read-out: Cmax Median): 830 nM
Cmax ([1]; human, plasma, oral, 50 mg, Study .3/fed, read-out: Cmax gMean): 806 nM
Tmax ([1]; human, plasma, oral, 50 mg, Study .3/fed, read-out: tmax Mean): 2.46 h
Tmax ([1]; human, plasma, oral, 50 mg, Study .3/fed, read-out: tmax Median): 2.48 h
Tmax ([1]; human, plasma, oral, 50 mg, Study .3/fed, read-out: tmax gMean): 2.18 h
SMILES: OC[C@H]1O[C@@H](c2ccc(Cl)c(Cc3ccc(O[C@H]4CCOC4)cc3)c2)[C@H](O)[C@@H](O)[C@@H]1O [Compound (I.9), 1-chloro-4-(β-D-glucopyranos-1-yl)-2-[4-((S)-tetrahydrofuran-3-yloxy)-benzyl]-benzene]
reduced glucose excursion (baseline-corrected glucose AUC) ([2]; 0.3 mg/kg oral, not significant): 15%
reduced glucose excursion (baseline-corrected glucose AUC) ([2]; 3 mg/kg oral, p<0.001): 62%
reduced glucose excursion (baseline-corrected glucose AUC) ([2]; 30 mg/kg oral, p<0.001): 89%
